According to ChEMBL document CHEMBL4619785, “Advantages of the Parent Nucleoside GS-441524 over Remdesivir for Covid-19 Treatment” (ACS Med Chem Lett, 2020):

Experiments:
SARS-CoV = assay: Antiviral activity against SARS coronavirus infected in primary HAE cells; type: functional, organism-based; conditions: Severe acute respiratory syndrome-related coronavirus
[1] = Cytotoxic activity in HAE cells; type: cell-based; conditions: human
Feline coronavirus = assay: Antiviral activity against Feline corona virus infected in CRFK cells; type: functional, organism-based; conditions: Alphacoronavirus 1, CRFK
[2] = system: Middle East respiratory syndrome-related coronavirus; assay: Antiviral activity against Middle East respiratory syndrome coronavirus infected in primary HAE cells; type: functional, organism-based
in vivo [3] = conditions: rhesus monkey, serum, iv
in vivo [4] = conditions: mouse

Row | Structure (SMILES) | EC50 (SARS-CoV) [nM] | CC50 [1] [µM] | EC50 (Feline coronavirus) [nM] | EC50 [2] [nM] | half-life (in vivo [3]) [min] | half-life (in vivo [4]) [min]
1 | N#C[C@@]1(c2ccc3c(N)ncnn23)O[C@H](COP(=O)(O)OP(=O)(O)OP(=O)(O)O)[C@@H](O)[C@H]1O [RDV-TP] | 180 | > 100 | 780 | 860 |  | 
2 | CCC(CC)COC(=O)[C@H](C)N[P@](=O)(OC[C@H]1O[C@@](C#N)(c2ccc3c(N)ncnn23)[C@H](O)[C@@H]1O)Oc1ccccc1 [REMDESIVIR] | 69 | > 10 |  | 74 | 24 | 25
